Assay results from patent publication US7078418B1, “1-aziridino-1-hydroxyiminomethyl-derivates, method for the production thereof and medicaments containing said compounds” (priority 1999, dated 2006).
≈ marks a conversion by molar mass, not a printed value.

What was measured:
[1] = system: 401 NL; assay: monolayer cytotoxicity test (modified propidium iodide assay), 401 NL; format: cell-based; conditions: Breast
Text: (§1) The compounds pursuant to the invention with the general formula I show antitumoral activity. The antitumoral activities of some compounds pursuant to the invention in the monolayer cytotoxicity test on selected cell lines are shown in Table 1. The low susceptibility of fibroblasts and endothelial cells with the use of the compounds pursuant to the invention is surprising.

[2] = system: 1138 L; assay: monolayer cytotoxicity test (modified propidium iodide assay), 1138 L; format: cell-based; conditions: Uterus
Text: as §1

[3] = system: HT29; assay: monolayer cytotoxicity test (modified propidium iodide assay), HT29; format: cell-based; conditions: for IC50 antitumoral activity: Colon
Text: as §1

[4] = system: GXF 251L; assay: monolayer cytotoxicity test (modified propidium iodide assay), GXF 251L; format: cell-based; conditions: Stomach
Text: as §1

[5] = system: 944 LL; assay: monolayer cytotoxicity test (modified propidium iodide assay), 944 LL; format: cell-based; conditions: Kidney
Text: as §1

[6] = system: LXFL 529; assay: monolayer cytotoxicity test (modified propidium iodide assay), LXFL 529; format: cell-based; conditions: Lung
Text: as §1

[7] = system: 12 tumor cell lines (Table 3); assay: cells; conditions: read-out: mean IC50
[8] = system: 12 tumor cell lines (Table 3); conditions: mean over 12 cell lines of Table 3
[9] = read-out: IC50 antitumoral activity

Row | Structure (SMILES) | IC50 [1, 9] [µg/mL] | IC50 [2, 9] [µg/mL] | IC50 ([3]; Homo sapiens, HT-29, Colon, read-out: IC50 antitumoral activity) [µg/mL] | IC50 [4, 9] [µg/mL] | IC50 [5, 9] [µg/mL] | IC50 ([6]; Homo sapiens, read-out: IC50 antitumoral activity) [µg/mL] | IC50 [7] [µg/mL] | IC50 antitumoral activity [1] [µg/mL] | IC50 antitumoral activity [2] [µg/mL] | IC50 antitumoral activity [3] [µg/mL] | IC50 antitumoral activity [4] [µg/mL] | mean IC50 [8] [µg/mL] | IC50 antitumoral activity [5] [µg/mL] | IC50 antitumoral activity [6] [µg/mL]
1 | O/N=C(/C(=N/O)N1CC1)N1CC1 [Compound 1, 1,1′-[1,2-bis(hydroxyimino)-1,2-ethanediyl]bisaziridine] | 0.04 (≈ 0.235 µM) | 0.173 (≈ 1.02 µM) | 0.486 (≈ 2.86 µM) | 0.781 (≈ 4.59 µM) | 0.923 (≈ 5.42 µM) | 0.441 (≈ 2.59 µM) |  |  |  |  |  |  |  | 
2 | O=c1[nH]cc(F)c(=O)[nH]1 [Compound 5FU, 5-fluorouracil] |  |  |  |  |  |  | 0.054 (≈ 0.415 µM) |  |  |  |  |  |  | 
3 | ON=C(c1cccc(C(=NO)N2CC2)n1)N1CC1 [Compound 6, 2,6-Bis(1-aziridino-1-hydroxyiminomethyl)pyridine] |  |  |  |  |  |  |  | 0.207 (≈ 0.837 µM) | 0.014 (≈ 0.0566 µM) | 0.117 (≈ 0.473 µM) | 0.020 (≈ 0.0809 µM) | 0.030 | 0.115 (≈ 0.465 µM) | 0.027 (≈ 0.109 µM)
4 | ON=C(c1ccc(C(=NO)N2CC2)cc1)N1CC1 [Compound 7, 1,4-Bis(1-aziridino-1-hydroxyiminomethyl)benzene] |  |  |  |  |  |  |  | 0.018 (≈ 0.0731 µM) | 0.038 (≈ 0.154 µM) | 0.258 (≈ 1.05 µM) | 0.542 (≈ 2.2 µM) |  | 0.348 (≈ 1.41 µM) | 0.038 (≈ 0.154 µM)
5 | ON=C(c1cccc(C(=NO)N2CC2)c1)N1CC1 [Compound 9, 1,3-Bis(1-aziridino-1-hydroxyiminomethyl)benzene] |  |  |  |  |  |  |  | 0.060 (≈ 0.244 µM) | 0.066 (≈ 0.268 µM) | 0.329 (≈ 1.34 µM) | 1.506 (≈ 6.12 µM) |  | 0.788 (≈ 3.2 µM) | 0.063 (≈ 0.256 µM)
6 | ON=C(c1cc(C(=NO)N2CC2)cc(C(=NO)N2CC2)c1)N1CC1 [Compound 10, 1,3,5-Tris(1-aziridino-1-hydroxyiminomethyl)benzene] |  |  |  |  |  |  |  | 0.043 (≈ 0.13 µM) | 0.111 (≈ 0.336 µM) | 0.670 (≈ 2.03 µM) | 3.964 (≈ 12 µM) |  | 0.750 (≈ 2.27 µM) | 0.100 (≈ 0.303 µM)
7 | ON=C(c1ccc(C(=NO)N2CC2)nc1)N1CC1 [Compound 14, 2,5-Bis(1-aziridino-1-hydroxyiminomethyl)pyridine] |  |  |  |  |  |  |  | 0.011 (≈ 0.0445 µM) | 0.034 (≈ 0.138 µM) | 0.200 (≈ 0.809 µM) | 0.717 (≈ 2.9 µM) |  | 0.198 (≈ 0.801 µM) | 0.006 (≈ 0.0243 µM)
8 | ON=C(c1ccc(C(=NO)N2CC2)o1)N1CC1 [Compound 16, 2,5-Bis(1-aziridino-1-hydroxyiminomethyl)furan] |  |  |  |  |  |  |  | 0.039 (≈ 0.165 µM) | 0.073 (≈ 0.309 µM) | 0.481 (≈ 2.04 µM) | 1.661 (≈ 7.03 µM) |  | 1.359 (≈ 5.75 µM) | 0.099 (≈ 0.419 µM)
